Laboratory results published in US20060084659A1, “Augmentation of psychotherapy with cannabinoid reuptake inhibitors” (priority 2004, published 2006).

Columns and labels:
[1] = tested on: Adult male Sprague-Dawley rats; assay: Extinction of conditioned fear measured by fear-potentiated startle (FPS) after extinction training; format: in vivo, rat; conditions: for extinction of fear (summary of Examples 1-10): systemic application in rats, fear-potentiated startle; for fear potentiated startle (FPS) after extinction training: 10 mg/kg AM404, 5 mg/kg rimonabant, alone or together, 30 trial extinction, 24 hrs post extinction training; for fear (FPS) vs vehicle: 10 mg/kg i.p., 30-trial extinction; for conditioned fear following extinction training vs vehicle: p<0.01
Protocol: Animals: Adult male Sprague-Dawley rats (Charles River, Raleigh, N.C., 350-450 g) were used in the present studies. Animals were housed in pairs in a temperature-controlled animal colony, with ad libitum access to food and water, and maintained on a 12 hr light/dark cycle.
(§1) Fear conditioning: All training and testing trials were performed in standardized chambers optimized for the measurement of fear-potentiated startle (see Walker et al. (2002) J. Neurosci. 22: 2343-2351). Animals were pre-exposed to the chambers for 10 min on each of 2 days prior to training for habituation purposes and to minimize the effects of contextual conditioning. On 2 consecutive days following habituation, rats were returned to the same chambers and presented with 10 pairings of a light (3.7 sec) co-terminating with a 0.4-mA, 0.5-sec shock (3.6-min inter-trial interval).
(§2) Matching: Twenty-four hours following the last fear-conditioning session, animals were returned to the same chambers and presented with startle stimuli (50-msec, 95-dB white-noise bursts) in the presence or absence of the light conditioned stimulus (light-CS). Increased startle in the presence of the light-CS was taken as a measure of conditioned fear, and the magnitude of the fear response was calculated as the percentage by which startle increased when the light-CS was presented in compound with the startle stimulus versus when it was omitted (fear-potentiated startle or FPS). Using these measurements, animals were divided into groups displaying approximately equal levels of FPS prior to drug treatment and extinction training.
Extinction training: Five days following the last fear conditioning trial, animals were injected intraperitoneally with a test compound or its vehicle in 1 mL/kg volumes and then immediately returned to the same chambers and presented with 15, 30 or 90 presentations of the light-CS in the absence of footshock (3.7-sec light, 30-sec inter-trial interval). One hour following extinction training, a subset of animals was given a short test consisting of startle stimuli in the presence or absence of the light-CS (2-5 light-startle compounds, values shown are averages of all trials). Twenty-four hrs post-extinction training, all animals were tested for the presence of fear-potentiated startle (15 light-startle compounds).
Statistics: Comparisons were made across drug-treatment groups at each test (e.g. 24-hr groups were compared across treatment groups) using ANOVA or Student's t-test with drug or dose as the independent measure, and using Fischer's LSD test for post-hoc analysis.

[2] = PD98059 systemic and intra-amygdala infusions; AP5 intra-amygdala infusions; cited from earlier work
[3] = intra-amygdala infusions; fear-potentiated startle (AP5 also freezing); cited from earlier work
[4] = doses greater than 5 mg/kg; Herzberg et al. 1997; cited from earlier work
[5] = tested on: Adult male Sprague-Dawley rats; assay: Shock reactivity, baseline startle and activity measures; format: in vivo, rat; conditions: 10 mg/kg
Protocol: Shock Reactivity, Startle, and Activity Measures: Animals that had been previously fear-conditioned were injected with AM404, placed in the training/testing chambers, and presented with 3 unpaired shocks and 42 startle stimuli (0.4-mA, 0.5-sec shocks, 95-dB noise-burst startle). The same group of animals was returned to the same chambers 3 d later, injected with vehicle, and presented with an identical behavioral test. The values shown are the mean integrated voltages of the accelerometers measured over 200-msec periods beginning at the onset of either the shocks or the startle stimuli. Additionally, a measure of spontaneous motor activity was derived from the mean displacement of the accelerometers in the 2 min prior to delivery of the first shock, while animals were exploring the chambers.
This experiment examined behavioral effects engendered by AM404 treatment. These included the effect of 10 mg/kg AM404 on: 1) shock-reactivity as a measure of pain sensitivity; 2) baseline startle as one measure of anxiety; and 3) general motor activity within the training chambers. Animals were fear-conditioned and then returned to the training chamber several days later and administered 10 mg/kg AM404. Following drug administration, animals were presented with 3 shocks and 42 startle stimuli identical to those used in the above studies. Subsequently, the same animals were returned to the testing chamber 3 days later, injected with vehicle, and similarly tested.

[6] = tested on: Adult male Sprague-Dawley rats; assay: FPS in fear-conditioned animals without cue re-exposure; format: in vivo, rat; conditions: 10 mg/kg AM404 or 5 mg/kg rimonabant; tested 1 hr following drug administration
Protocol: as §1
as §2, with “training. […]” for “training.”

[7] = tested on: Adult male Sprague-Dawley rats; assay: Shock-induced reinstatement of fear; format: in vivo, rat
Protocol: Reinstatement: Animals that had been previously fear-conditioned and extinction-trained were returned to the testing chamber 48 hours and sometimes 96 hours following extinction training and presented with 3 footshocks in the absence of the light-CS (0.4 mA, 0.5 sec shock, 2 min inter-trial interval). Immediately following the unpaired shocks, animals were tested for the presence of fear-potentiated startle (15 light-startle compounds).
Shock-induced reinstatement was examined 2 days following treatment with AM404 or vehicle during extinction. Previous studies have shown that the level of fear following reinstatement is dependent both on the level of the stressor and the amount of previous extinction, as long as the stressor is delivered in the same context as the original training context (Rescorla & Heth (1975). J. Exp. Psychol. Anim. Behav. Process. 1(1): 88-96; Bouton & King (1983) J. Exp. Psychol. Anim. Behav. Process. 9: 248-265). As animals were matched for equivalent FPS prior to extinction training, the susceptibility of animals to reinstatement can be taken as a secondary measure of the strength of extinction training, and perhaps as a preliminary measure of the resiliency of these inhibitory extinction memories to stressors. […]

[8] = cited from earlier work

NC(=O)c1cccc(-c2cccc(OC(=O)NC3CCCCC3)c2)c1 [URB597, cyclohexylcarbamic acid 3′-carbamoylbiphenyl-3-yl ester]
reduction in fear within the testing session ([1]; 15-trial extinction, relative to animals receiving no drug): greater reductions in fear within the testing session
average decrease in FPS relative to pre-extinction levels ([1]; 15-trial extinction, testing sessions 48 and 96 hours after extinction training): approximately 30%
extinction retention (fear in the presence of the CS) ([1]; prior to 15-trial extinction training, 48 hrs following extinction training): enhancement of extinction retention
extinction of fear (summary of Examples 1-10) [1]: dose-dependently enhances extinction of fear

NC(CCCP(=O)(O)O)C(=O)O (stereo not shown) [AP5]
fear conditioning [2]: block fear conditioning
extinction [3]: block extinction

Cc1c(C(=O)c2cccc3ccccc23)c2cccc3c2n1[C@H](CN1CCOCC1)CO3 [WIN 55-212,2]
extinction retention (reduction in fear) ([1]; 5 mg/kg single dose prior to 30-trial extinction training): did not augment the non-significant reduction in fear
locomotor and analgesic effects [4]: prominent locomotor and analgesic effects

CCCCC/C=C\C/C=C\C/C=C\C/C=C\CCCC(=O)Nc1ccc(O)cc1 [AM404, N-(4-hydroxyphenyl)arachidonamide]
fear potentiated startle (FPS) after extinction training [1]: significant extinction
fear (FPS) vs vehicle ([1]; 1 hr post extinction, p<0.05): significantly less fear than vehicle-treated controls
fear (FPS) vs vehicle ([1]; 24 hrs post-extinction, post-hoc p<0.05): significantly less than vehicle-treated animals
extinction retention (fear in the presence of the CS) ([1]; prior to 30-trial extinction training, 24 hrs following extinction training, main effect of drug p<0.05): enhancement of extinction retention
extinction of fear (summary of Examples 1-10) [1]: dose-dependently enhances extinction of fear
shock reactivity (pain sensitivity) ([5]; 3 footshocks, p>0.5): little effect
baseline startle (anxiety) ([5]; p=0.45): non-significant trend toward decreased baseline startle
overall locomotor activity levels in the testing chamber ([5]; p>0.5): little effect
FPS when cue re-exposure omitted [6]: no effect on FPS
reinstatement-induced conditioned fear ([7]; 2 mg/kg and 10 mg/kg groups pooled, drug given prior to extinction training, 48 hrs prior to reinstatement with 3 footshocks, p<0.05): less reinstatement-induced conditioned fear
within-session extinction (change in FPS) after reinstatement ([7]; first 4 trials of testing following reinstatement, Trial X Drug p<0.02): little change

COc1cccc(-c2cc(=O)c3ccccc3o2)c1N [PD98059]
fear conditioning [2]: disrupt fear-conditioning
extinction [3]: disrupt extinction

N[C@@H]1CONC1=O [DCS, D-cycloserine]
half-life ([8]; in vivo): 10 h
route of excretion ([8]; in vivo): primarily renally excreted
time of peak blood levels after dosing ([8]; in vivo): 3 to 8 h
side effects ([8]; infrequent, subjects on chronic dosing schedules, generally chronically ill with tuberculosis): drowsiness, headache, confusion, tremor, vertigo, and memory difficulties, paresthesias, and seizure

Cc1c(C(=O)NN2CCCCC2)nn(-c2ccc(Cl)cc2Cl)c1-c1ccc(Cl)cc1 [rimonabant]
conditioned fear following extinction training vs vehicle ([1]; 1.5 mg/kg i.p., 90-trial extinction, 24 hrs post-extinction): significantly higher levels of conditioned fear than vehicle-treated controls
conditioned fear following extinction training vs vehicle ([1]; 5 mg/kg i.p., 90-trial extinction, 24 hrs post-extinction): significantly higher levels of conditioned fear than vehicle-treated controls
fear potentiated startle (FPS) after extinction training [1]: no decrease in fear potentiated startle
extinction retention (fear in the presence of the light-CS) ([1]; 90-trial extinction, acute administration immediately prior to extinction training, tested 24 hrs following extinction training): profound disruption of extinction retention
extinction of fear (summary of Examples 1-10) [1]: dose-dependently blocks extinction of fear
FPS when cue re-exposure omitted [6]: no effect on FPS
